Data from paper PMC8199030, “Salvia officinalis L.: Antitrypanosomal Activity and Active Constituents against Trypanosoma brucei rhodesiense” (Molecules, 2021).
Values after ≈ are worked out from the molar mass of the structure shown. Values joined by “and” are separate entries in the source; they are usually repeats but may differ in a detail not shown here. Equal entries are not always repeated. Where two headings read alike, the source gives them in different places.

Tests used:
in vitro = conditions: rat
Method: (§1) Samples with a defined concentration of 2 mg/mL were prepared of each fraction and analyzed by UHPLC/ESI-QqTOF-MS (henceforth abbreviated LC/MS) to determine the analytical fingerprints. After the analysis and dereplication of major peaks (see Figure S1 and Table S1 in Supplementary Material) as well as comparison of the samples’ analytical profiles, 17 representative fractions were selected to be assayed in vitro against Tbr. […] IC50 values for the individual fractions were not determined, in order to save resources and since the % GI data can serve as an approximate substitute in cases where relative activities of similar samples such as the fractions under study are compared.
(§2) Melarsoprol was used as positive control. The cytotoxicity of the compounds was assessed using L6 rat skeletal myoblast cells and podophyllotoxin as a reference drug.
(§3) In vitro assays for the bioactivity against Trypanosoma brucei rhodesiense (Tbr, bloodstream-form trypomastigotes, STIB 900 strain) and cytotoxicity tests against mammalian cells (L6-cell-line from rat skeletal myoblasts) were performed at the Swiss Tropical and Public Health Institute (Swiss TPH, Basel, Switzerland), according to established protocols and as previously described.

[1] = test system: Trypanosoma brucei rhodesiense (Tbr, bloodstream-form trypomastigotes, STIB 900 strain); assay: microbe, parasite or virus in culture; conditions: Trypanosoma brucei, read-out: IC50 Tbr (STIB 900)
Method: as §1, §2, §3

[2] = Cytotoxicity against mammalian L6 cells; type: cell-based; conditions: rat
[3] = test system: Trypanosoma brucei rhodesiense (Tbr, bloodstream-form trypomastigotes, STIB 900 strain); conditions: cited from earlier work
[4] = mean of two independent determinations ± deviation from the mean, read-out: IC50 Cytotox L6
[5] = mean of two independent determinations, read-out: IC50 Cytotox L6

| SMILES | selectivity ratio (in vitro) | IC50 [1] | IC50 [2, 4] [µg/mL] | IC50 [2, 5] [µM] | IC50 [2] | IC50 against Tbr, previous study ([3]; previous study) [µg/mL] | activity against Tbr, previously reported [3] |
| --- | --- | --- | --- | --- | --- | --- | --- |
| CO[C@H]1c2cc(C(C)C)c(O)c(O)c2[C@@]23CCCC(C)(C)[C@@H]2[C@@H]1OC3=O [7-O-Methylrosmanol (5), 7-O-methylrosmanol] | 0.8 | 8.3 µg/mL and 23 µM | 6.6 ± 0.8 | 18 | – | – | – |
| COc1c(C(C)C)cc2c(c1O)[C@@]1(C(=O)O)CCCC(C)(C)[C@@H]1CC2 [12-O-Methylcarnosic acid (8), 12-O-methylcarnosic acid] | 1.3 | 15 µg/mL and 44 µM | – | – | 20 µg/mL and 56 µM | – | – |
| COc1cc2oc(-c3ccc(O)cc3)cc(=O)c2c(O)c1OC [Cirsimaritin (1), 4’,5-dihydroxy-6,7-dimethoxyflavone] | 2.8 | – | – | – | 4.6 µg/mL and 15 µM | 3.3 (≈ 10.5 µM) | – |
| CC(C)c1cc2c(c(O)c1O)[C@@]13CCCC(C)(C)[C@@H]1[C@H](OC3=O)[C@H]2O [Compound 3, rosmanol] | – | ~8.3 µg/mL (≈ 24 µM) | – | – | – | – | – |
| CC(C)c1cc2c(c(O)c1O)[C@@]13CCCC(C)(C)[C@@H]1[C@H](OC3=O)[C@@H]2O [Epirosmanol (2), epirosmanol] | 1.6 | 3.2 µg/mL and 9.3 µM | – | – | 5 µg/mL and 15 µM | – | – |
| C=C[C@](C)(O)CC[C@H]1C(=C)CC[C@H]2C(C)(C)CCC[C@]12C [Manool (9), manool] | 2.1 | – | 5.6 ± 0.5 | 19 | – | – | – |
| CC(C)C1=Cc2ccc3c(c2C(=O)C1=O)CCCC3(C)C [Miltirone, miltirone, reference compound] | – | – | – | – | – | – | very potent activity |
| COc1cc([C@@H]2c3cc4c(cc3[C@H](O)[C@H]3COC(=O)[C@H]23)OCO4)cc(OC)c1OC [Podophyllotoxin, reference compound] | – | – | 0.009 ± 0.001 | 0.022 | – | – | – |
